From patent publication US20060074108A1, “Matrix metalloprotease (MMP) inhibitors and their application in cosmetic and pharmaceutical composition” (Bioderm Research, priority 2004, published 2006)

Key:
TRP-2 = experiment: tyrosinase enzyme based model: inhibition of color formation from the action of TRP-2 on tyrosine, spectrophotometric rate kinetics; format: biochemical; conditions: TRP-2 model extended as predictive to MMP-2 and MMP-9 inhibition, wound healing application
Text: It is based on the inhibition of a tyrosinase enzyme based model system, for example Canters et al., “Kinetic and paramagnetic NMR investigations of the inhibition of Streptomyces antibioticus tyosinase”, Journal of Molecular Catalysis, B: Enzymatics, vol. 8, 27-35 (2000). Tyrosinase is a copper-based monooxygenase enzyme that catalyzes the hydroxylation of monophenols (hydroxybenzenes) and the oxidation of ortho-diphenols to ortho-quinones. The active-site of tyrosinase is known to contain two copper ions (CuA and CuB). […] The regions around these copper-binding ligands are well conserved. Moreover, the distance between these two copper ions is […] [(van Amsterdam et al., Angewandte Chemie, 42: 62-64 (2003); Bubacco et al., J. Biol. Chem., 181-194 (2003)]. At least two proteins related to tyrosinase are known to exist in mammals, and include TRP-1, which is responsible for the conversion of 5,6-dihydroxyindole-2-carboxylic acid (DHICA) to indole-5,6-quinone-2-carboxylic acid (IQCA) or indole-5,6-quinone (IQ); and TRP-2, which is the melanogenic enzyme DOPAchrome tautomerase that catalyzes the conversion of DOPAchrome to DHICA. TRP-2 differs from tyrosinases and TRP-1 in that it binds two zinc ions instead of copper. Other proteins that belong to this family are plant polyphenol oxidases (PPO), which catalyze the oxidation of mono- and ortho-diphenols to ortho-diquinone. […] The colorless tyrosine is converted into yellow/orange colored ortho-diquinone of tyrosine, which is spectrophotometrically quantitated and its rate kinetics thus established.

MMP-13 = MMP-13 (Homo sapiens, UniProt P45452); conditions: in words; cited from earlier work
MMP-1 = molecular target: T1, MMP-1 (Homo sapiens, UniProt P03956); conditions: in words; cited from earlier work
T1 sequence (P03956 100-469): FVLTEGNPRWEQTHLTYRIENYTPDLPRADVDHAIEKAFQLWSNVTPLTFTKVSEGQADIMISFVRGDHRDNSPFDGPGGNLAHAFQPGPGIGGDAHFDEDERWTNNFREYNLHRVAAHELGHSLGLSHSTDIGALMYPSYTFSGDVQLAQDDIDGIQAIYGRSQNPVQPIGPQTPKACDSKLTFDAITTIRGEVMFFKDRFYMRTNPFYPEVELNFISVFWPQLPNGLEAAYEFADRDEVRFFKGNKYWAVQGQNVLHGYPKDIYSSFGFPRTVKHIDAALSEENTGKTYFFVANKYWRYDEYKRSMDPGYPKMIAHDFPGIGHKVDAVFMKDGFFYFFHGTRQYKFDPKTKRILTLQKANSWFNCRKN

MMP-9 = MMP-9 (Homo sapiens, UniProt P14780); conditions: in words; cited from earlier work
Chain of MMP-9 (P14780 94-707, species assumed): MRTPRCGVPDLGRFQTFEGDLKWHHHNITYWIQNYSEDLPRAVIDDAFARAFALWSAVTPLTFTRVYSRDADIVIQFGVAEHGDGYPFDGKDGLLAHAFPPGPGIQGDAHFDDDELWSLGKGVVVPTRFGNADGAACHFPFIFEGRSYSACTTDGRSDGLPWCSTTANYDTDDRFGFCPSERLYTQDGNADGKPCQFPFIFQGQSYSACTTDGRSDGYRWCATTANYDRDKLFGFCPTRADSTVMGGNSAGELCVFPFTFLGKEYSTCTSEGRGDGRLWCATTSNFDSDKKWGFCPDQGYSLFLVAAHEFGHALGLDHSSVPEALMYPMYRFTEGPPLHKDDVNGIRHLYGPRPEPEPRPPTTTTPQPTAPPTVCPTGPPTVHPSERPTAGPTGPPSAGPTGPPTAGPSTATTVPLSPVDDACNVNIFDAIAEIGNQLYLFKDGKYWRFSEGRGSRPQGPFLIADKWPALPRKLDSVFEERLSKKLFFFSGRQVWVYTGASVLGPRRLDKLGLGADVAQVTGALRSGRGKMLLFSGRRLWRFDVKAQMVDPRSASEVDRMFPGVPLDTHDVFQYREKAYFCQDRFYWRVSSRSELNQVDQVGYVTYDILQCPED

Row | Compound | order of efficacy (oxime derivatives) (TRP-2) | order of efficacy (acetophenones) (TRP-2) | further results
1 | CC(=NO)c1ccc(O)cc1O [2,4-Dihydroxyacetophenone Oxime] | 2,5-Dihydroxyacetophenone Oxime>2,4-Dihydroxyacetophenone Oxime>2-Hydroxy-4-methoxyaceophenone Oxime | – | –
2 | CC(=O)c1ccc(O)cc1O [2,4-Dihydroxyacetophenone] | – | 2,5-Dihydroxyacetophenone>2,4-Dihydroxyacetophenone>2-Hydroxy-4-methoxyaceophenone | –
3 | CC(=NO)c1cc(O)ccc1O [2,5-Dihydroxyacetophenone Oxime] | 2,6-Dihydroxyacetophenone Oxime>2,5-Dihydroxyacetophenone Oxime>2,4-Dihydroxyacetophenone Oxime | – | –
4 | CC(=O)c1cc(O)ccc1O [2,5-Dihydroxyacetophenone] | – | 2,6-Dihydroxyacetophenone>2,5-Dihydroxyacetophenone>2,4-Dihydroxyacetophenone | –
5 | CC(=NO)c1c(O)cccc1O [2,6-Dihydroxyacetophenone Oxime] | 2,6-Dihydroxyacetophenone Oxime>2,5-Dihydroxyacetophenone Oxime | – | –
6 | CC(=O)c1c(O)cccc1O [2,6-Dihydroxyacetophenone] | – | 2,6-Dihydroxyacetophenone>2,5-Dihydroxyacetophenone | –
7 | COc1ccc(C(C)=NO)c(O)c1 [2-Hydroxy-4-methoxyaceophenone Oxime] | 2,4-Dihydroxyacetophenone Oxime>2-Hydroxy-4-methoxyaceophenone Oxime | – | –
8 | COc1ccc(C(C)=O)c(O)c1 [2-Hydroxy-4-methoxyaceophenone] | – | 2,4-Dihydroxyacetophenone>2-Hydroxy-4-methoxyaceophenone >>>Arbutin | –
9 | OC[C@H]1O[C@@H](Oc2ccc(O)cc2)[C@H](O)[C@@H](O)[C@@H]1O [Arbutin, reference compound] | – | 2-Hydroxy-4-methoxyaceophenone >>>Arbutin | –
10 | O=C(NCCCCN1CCOCC1)c1cc2ccccc2o1 [CL-82198] | – | – | inhibition of MMP-13 (MMP-13): weak inhibition; activity against MMP-1 (MMP-1): complete lack of activity; activity against MMP-9 (MMP-9): complete lack of activity
11 | Cc1cc(C)c(N(Cc2ccccc2)S(=O)(=O)c2ccc(OCCNC(=O)c3cc4ccccc4o3)cc2)c(C(=O)NO)c1 [WAY-170523] | – | – | inhibition of MMP-13 (MMP-13): potent
